Here are results for two compounds from BindingDB's records for doi:10.1021/acsmedchemlett.9b00575 (Duke University, 2020).

What is called EC50 is the midpoint of the concentration-response curve.

One assay addresses D(1A) dopamine receptor (Homo sapiens, UniProt P21728). As to the kind of experiment: Agonist activity at D1R (unknown origin) transfected in human HEK293T cells assessed as increase in cAMP accumulation incubated for 2 hrs by cAMP Glo-sensor assay. (In general: Changes in cAMP serve as a functional read-out for many G protein-coupled receptors.)
The target of another assay is D(2) dopamine receptor (Homo sapiens, UniProt P14416). As to the kind of experiment: Agonist activity at C-terminal RLuc8-fused D2 long receptor (unknown origin) transfected in human HEK293T cells co-expressing N-terminal Venus-tagged beta-arrestin2 assessed as increase in beta-arrestin2 recruitment measured after 5 mins in presence of coelenterazine H by BRET assay. A general note: Activated receptors often draw arrestin, which recruitment assays turn into a signal.
Sequence of D(2) dopamine receptor (P14416 whole entry, the tested form may be a part): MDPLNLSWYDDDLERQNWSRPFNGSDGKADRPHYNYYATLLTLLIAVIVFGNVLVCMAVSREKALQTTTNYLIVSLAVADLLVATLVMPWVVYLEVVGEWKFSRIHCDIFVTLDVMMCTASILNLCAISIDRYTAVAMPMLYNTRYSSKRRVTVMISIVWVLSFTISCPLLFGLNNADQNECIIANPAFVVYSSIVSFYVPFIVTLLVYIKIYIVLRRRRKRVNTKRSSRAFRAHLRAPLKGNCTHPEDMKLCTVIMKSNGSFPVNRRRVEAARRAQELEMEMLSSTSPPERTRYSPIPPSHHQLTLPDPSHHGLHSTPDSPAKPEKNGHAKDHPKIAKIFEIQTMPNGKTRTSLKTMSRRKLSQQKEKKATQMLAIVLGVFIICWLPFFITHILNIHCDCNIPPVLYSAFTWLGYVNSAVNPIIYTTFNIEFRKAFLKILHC

Sequence of D(1A) dopamine receptor (P21728 whole entry, the tested form may be a part): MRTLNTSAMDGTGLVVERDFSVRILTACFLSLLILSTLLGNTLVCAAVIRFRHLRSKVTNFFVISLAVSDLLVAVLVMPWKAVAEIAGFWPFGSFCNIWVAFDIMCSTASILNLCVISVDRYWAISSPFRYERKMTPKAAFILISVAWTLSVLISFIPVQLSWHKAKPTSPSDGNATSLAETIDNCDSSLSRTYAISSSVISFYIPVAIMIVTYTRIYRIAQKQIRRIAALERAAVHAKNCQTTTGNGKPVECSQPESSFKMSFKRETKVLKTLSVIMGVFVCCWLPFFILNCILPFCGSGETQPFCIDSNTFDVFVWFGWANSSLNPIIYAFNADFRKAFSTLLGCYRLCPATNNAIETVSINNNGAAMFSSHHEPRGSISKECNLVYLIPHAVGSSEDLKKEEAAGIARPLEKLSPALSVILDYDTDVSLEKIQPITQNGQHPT

With `CN1CCc2cccc3c2[C@H]1Cc1ccc2c(c1-3)OCO2`, on D(1A) dopamine receptor, the concentration giving a half-maximal response (EC50) worked out at 100 nM.

As to `CC(=O)Oc1c(Br)cc2c(c1OC(C)=O)-c1cccc3c1[C@@H](C2)N(C)CC3`, the EC50 at D(2) dopamine receptor was 1260 nM.
